Source: US6531505B2, “Immunosuppressive agents” (priority 1998, dated 2003)
Entries after “also recorded” stand apart in the source; their conditions may differ.

Assays:
[1] = test system: CCl4-induced liver injury in mice; assay: Hepatoprotection studies on CCl4-induced liver injury in mice; type: in vivo, ICR male mice; conditions: for ALT / AST: serum, 20 hours after CCl4
Method: ICR male mice (8 mice for each group) were used. Astilbin (50 or 100 mg/kg) and RSG ext (100 or 200 mg/kg) were administered orally for 6 days. One hour after final administration, mice were intraperitoneally injected with 0.2% CCl4 in olive oil (0.2 ml/20 g of body weight).
For the control studies, only CCl4 injected mice without drug administration were used.
Then, 20 hours after administration of CCl4, the blood samples were collected, and used for determining the serum ALT and the serum AST activities by the conventional methods.

[2] = test system: adherent cells isolated from NPC; assay: Apoptosis measurement No. 1, counting of apoptotic cells (Hoechst 33342); type: cell-based, mice; conditions: 5×10^−5 g/ml, 1 hour, 37° C., FIG. 1
Method: (§1) Additionally, a part of NPC was incubated on the culture plate for 3 hours in order to separate adherent cells from non-adherent cells. […] HC and NPC isolated from liver injury mice 12 hours after elicitation, and fraction of adherent cells and non-adherent cells isolated from NPC were used. These cells were incubated with 5×10^−5 g/ml of astilbin and RSG ext, as the testing compounds, in RPMI 1640 medium at 37° C. for 1 hour, respectively. After incubation, the cells were stained with Hoechst 33342 (Molecular Probes, Inc., USA) for 1 minute at room temperature. After washed three times with RPMI 1640 medium, the obtained cells were fixed with 2% formaldehyde in phosphate buffer solution (PBS). The apoptotic cells among the total population were determined by counting a total of 200 cells in five different fields under fluorescent microscope. For the control studies, the cells treated without test compounds were incubated and followed by the same manner.

[3] = test system: non-adherent cells isolated from NPC; assay: as above; type: cell-based, mice; conditions: 5×10^−5 g/ml, 1 hour, 37° C., FIG. 1
Method: as §1

[4] = test system: NPC and spleen cells isolated from normal mice; assay: Apoptosis measurement No. 2, DNA fragmentation assay (gel agarose electrophoresis); type: cell-based; conditions: 5×10^−5 g/ml, 1 hour
[5] = test system: NPC isolated from liver injury mice; assay: ALT-releasing assay, co-culture of HC with pre-treated NPC; type: cell-based; conditions: for ALT activity in supernatants of HC co-cultured with pre-treated NPC: Example 5 Experiment 2, NPC incubated with test compound 1 hour, co-culture 3 hours, FIG. 6
Method: HC and NPC were isolated from mice 12 hours after elicitation of liver injury. Thus obtained HC was suspended in WE medium, and was seeded onto 96-wells microplates (2×10^4 cells/0.2 ml/wells), and incubated at 37° C. for 5 hours with 5% (v/v) CO2 in air. After incubation, the HC was washed twice with WE medium and co-cultured with NPC of 8×10^4 cells for 3 hours. NPC was pre-incubated for 1 hour at 37° C. with various concentration of astilbin or RSG ext. After co-culture, the supernatants were collected for assaying ALT and AST activities by the conventional methods.
HC and NPC were isolated from liver injury mice 12 hours after elicitation, as the same manner described in Experiment 4. Thus the HC was suspended in WE medium, and was seeded onto 96-wells microplates (2×10^4 cells/0.2 ml/wells), and incubated at 37° C. for 5 hours with 5% (v/v) CO2 in air. After incubation, the HC was washed twice with WE medium and co-cultured with NPC of 8×10^4 cells, which were pre-treated with 5×10^−5 g/ml of astilbin or RSG ext for 5, 15, 30, 60 and 120 minutes respectively, at 37° C. for 3 hours. After co-culture, the supernatants were collected for assaying the ALT activity by the conventional methods.
HC (2×10^4 cells/0.2 ml/wells in WE medium) were seeded onto 96-well microplates and incubated at 37° C. with 5% (v/v) CO2 in air.
On the other hand, NPC was incubated in the medium with or without test compounds for 1 hour. The test compounds were smitilbin of the formula (I-a), astilbin of the formula (I-b), engeletin of the formula (I-c), and eucryphin of formula (I-d), respectively.
After 5 hours of the incubation, each monolayers of HC were washed twice with the medium, and then 8×10^4 cells of NPC, pre-treated with or without above test compounds, were added. After 3 hours of further incubation, the supernatants were collected and used for assaying the ALT activity by the conventional methods.

[6] = test system: NPC isolated from liver injury mice; assay: Apoptosis measurement No. 2, DNA fragmentation assay (gel agarose electrophoresis); type: cell-based; conditions: 5×10^−5 g/ml, 1 hour, NPC from liver injury mice 12 hours after elicitation
[7] = test system: total NPC isolated from liver injury mice; assay: Apoptosis measurement No. 1, counting of apoptotic cells (Hoechst 33342); type: cell-based; conditions: 5×10^−5 g/ml, 1 hour, 37° C., NPC from liver injury mice 12 hours after elicitation, FIG. 1
Method: HC and NPC isolated from liver injury mice 12 hours after elicitation, and fraction of adherent cells and non-adherent cells isolated from NPC were used. These cells were incubated with 5×10^−5 g/ml of astilbin and RSG ext, as the testing compounds, in RPMI 1640 medium at 37° C. for 1 hour, respectively. After incubation, the cells were stained with Hoechst 33342 (Molecular Probes, Inc., USA) for 1 minute at room temperature. After washed three times with RPMI 1640 medium, the obtained cells were fixed with 2% formaldehyde in phosphate buffer solution (PBS). The apoptotic cells among the total population were determined by counting a total of 200 cells in five different fields under fluorescent microscope. For the control studies, the cells treated without test compounds were incubated and followed by the same manner.

[8] = test system: mice with liver injury induced by delayed-type hypersensitivity (DTH) reaction; assay: Studies for drug administration time (induction phase and effector phase); type: in vivo; conditions: for histopathological examination of liver (inflammatory infiltration, hepatocellular coagulation necrosis): 18 hours after injection of picryl chloride into liver; for serum ALT activity: FIG. 5
Method: The liver injury was induced by the same manner as described in Experiment 1. To determine the effects of astilbin and RSG ext on the induction phase (during sensitization) and effector phase (after elicitation of liver injury), astilbin (50 and 100 mg/kg) and RSG ext (100 and 200 mg/kg) were administered orally to the mice for once a day after 10 days from the 1st sensitization, and for 3 times at 0, 5 and 10 hours after elicitation, respectively.
For the control studies, mice without drug administration were used, and for the positive control studies, 10 mg/kg cyclophosphamide (Cy) was administered percutaneously to the mice.
18 hours after the injection of picryl chloride into liver, the blood samples were collected for determining the serum ALT activity by the conventional methods. Histopathological examination of liver was also performed.

[9] = test system: HC isolated from liver injury mice; assay: ALT-releasing assay, co-culture of NPC with pre-treated HC; type: cell-based; conditions: HC pre-treated with high concentration for more than 2 hours
Method: HC in WE medium was incubated with or without test compounds for 1 hour. Then, the HC was seeded onto 96-well microplates (2×10^4 cells/0.2 ml/wells) and incubated at 37° C. with 5% (v/v) CO2 in air for 5 hours. After 5 hours, HC monolayers were washed twice with the medium, and then 8×10^4 cells of NPC were added. […] The test compounds were the same ones as described in Experiment 2, above.

[10] = test system: HC isolated from normal mice, treated with CCl4; assay: Hepatoprotection studies on CCl4-induced hepatocyte damage; type: cell-based; conditions: 5×10^−6 to 1×10^−4 g/ml, HC treated 2 hours, then 0.2% CCl4 1 hour
Method: HC was isolated from the normal mice used in Experiment 8 above. The cells were treated for 2 hours with astilbin or RSG ext, then washed twice with WE medium solution. After washing, 0.1 ml of 0.2% CCl4 in olive oil was added to the cells, and the resulting cells were incubated for 1 hour. The ALT activity in the supernatants was determined by the conventional methods.
HC isolated from the normal mice was used. The cells were treated for 2 hours with test compounds. After treatment, the cells were washed twice, and incubated for 1 hour after addition of 0.1 ml of 0.2% CCl4. The obtained supernatants were collected for assaying the ALT activity by the conventional methods. For the control studies, non-treated HC with test compounds were used.

[11] = NPC pre-incubated 1 hour with various concentrations, co-culture with HC 3 hours, FIG. 2
[12] = dose 50 mg/kg orally for 6 days
[13] = dose 100 mg/kg orally for 6 days

COC(=O)c1cc(OC)c2c(c1-c1c(C(=O)OC)cc(OC)c3c1OCO3)OCO2 [BDD, biphenyl dimethyl dicarboxylate, reference compound]
ALT elevation ([1]; 150 mg/kg orally, positive control): significantly decreased | ALT ([1]; dose 150 mg/kg orally): 510.7 ± 27.0 Karmen unit | AST ([1]; dose 150 mg/kg orally): 675.6 ± 80.9 Karmen unit

C[C@@H]1O[C@@H](O[C@H]2C(=O)c3c(O)cc(O)cc3O[C@@H]2c2ccc(O)c(O)c2)[C@H](O)[C@H](O)[C@H]1O [astilbin]
ratio of apoptotic cells in the fraction of adherent cells of NPC [2]: no influence | ratio of apoptotic cells in non-adherent fraction isolated from NPC [3]: increased | DNA ladder pattern (DNA fragmentation) [4]: no DNA ladder' pattern appeared | ALT release ([5]; 5×10^−5 g/ml, NPC pre-incubated 1 hour, co-culture with HC 3 hours): complete inhibition | ALT releasing ([5]; 5×10^−5 g/ml, pre-treatment of NPC for more than 30 minutes): completely inhibited | ALT activity in supernatants of HC co-cultured with pre-treated NPC [5]: dose-dependently inhibited | ALT releasing activity of NPC [5, 11]: dose-dependently inhibited; also recorded: stronger activity than RSG ext | AST releasing activity of NPC [5, 11]: dose-dependently inhibited | releasing of ALT from HC ([5]; NPC pre-treated with 5×10^−5 g/ml for 5, 15, 30, 60 and 120 minutes, FIG. 3): inhibited time-dependently | DNA ladder pattern (DNA fragmentation) [6]: DNA ladder' pattern appeared | ratio of apoptotic cells in total NPC [7]: significantly increased | histopathological examination of liver (inflammatory infiltration, hepatocellular coagulation necrosis) [8]: improvement of liver injury | serum ALT activity ([8]; high dose (astilbin 100 mg/kg, RSG ext 200 mg/kg) orally in effector phase, 3 times at 0, 5 and 10 hours after elicitation, blood 18 hours after): significant decrease | serum ALT activity ([8]; low dose (astilbin 50 mg/kg, RSG ext 100 mg/kg) orally in effector phase): tendency of decreasing | ALT releasing [9]: not changed | ALT release from HC treated with CCl4 [10]: None of the test compounds | ALT release from HC treated with CCl4 ([10]; listed as Astilbin): did not affect | effect on elevation of ALT and AST activities ([1]; astilbin 50 or 100 mg/kg, RSG ext 100 or 200 mg/kg orally for 6 days before CCl4): no effect | ALT [1, 12]: 901.6 ± 36.1 Karmen unit | AST [1, 12]: 670.4 ± 21.2 Karmen unit | ALT [1, 13]: 921.5 ± 40.2 Karmen unit | AST [1, 13]: 688.2 ± 45.6 Karmen unit

O=P1(N(CCCl)CCCl)NCCCO1 (stereo not drawn) [cyclophosphamide, reference compound]
serum ALT activity ([8]; 10 mg/kg, given in both induction and effector phases, positive control): significant decrease | histopathological examination of liver (inflammatory infiltration, hepatocellular coagulation necrosis) [8]: improvement of liver injury

C[C@@H]1O[C@@H](O[C@H]2C(=O)c3c(O)cc(O)cc3O[C@@H]2c2ccc(O)cc2)[C@H](O)[C@H](O)[C@H]1O [engeletin]
ALT activity in supernatants of HC co-cultured with pre-treated NPC [5]: dose-dependently inhibited | ALT release from HC treated with CCl4 [10]: None of the test compounds

C[C@@H]1O[C@@H](Oc2coc3cc(O)cc(O)c3c2=O)[C@H](O)[C@H](O)[C@H]1O [eucryphin]
ALT activity in supernatants of HC co-cultured with pre-treated NPC [5]: much stronger inhibitory effect | ALT release from HC treated with CCl4 [10]: None of the test compounds

C[C@@H]1O[C@@H](O[C@@H]2C(=O)c3c(O)cc(O)cc3OC2c2cc(O)cc(O)c2)[C@H](O)[C@H](O)[C@H]1O (stereo partly drawn) [smitilbin]
ALT activity in supernatants of HC co-cultured with pre-treated NPC [5]: dose-dependently inhibited | ALT release from HC treated with CCl4 [10]: None of the test compounds
